Experimental data from patent publication US20040043904A1, “N-(4-pyrazolyl) amide derivatives, chemicals for agricultural and horticultural use, and usage of the same” (priority 2003, published 2004).

Each compound was assayed on green peach aphid (Myzus persicae) (assay: Insecticidal effect on green peach aphid (Test Example 7)). Details: 144 h, stems and leaves of Chinese cabbage sprayed, parasites counted six days after spraying, read-out: insecticidal effect (control efficacy).
Assay type: in vivo
Excerpt: Insecticidal Effect on Green Peach Aphid (Myzus persicae)
A Chinese cabbage plant was planted in each of plastic pots with a diameter of 8 cm and a height of 8 cm, and green peach aphids were propagated on the plant. The number of parasites of each pot was counted.
Then, the stems and leaves were sufficiently sprayed with the test solution. After air-drying, the pots were allowed to stand in a greenhouse.
Control efficacy (%)=100[(T×Ca)/(Ta×C)]×100
Ta: number of parasites before spraying in treated group,
T : number of parasites after spraying in treated group,
Ca: number of parasites before spraying in untreated group,
[…]: number of parasites after spraying in untreated group.
For `COc1cc(CC(=O)Nc2cnn(CCCl)c2Cl)ccc1Oc1ccc(C(F)(F)F)cn1` [Compound D-71, 5-chloro-4-(3-methoxy-4-(5-trifluoromethylpyridine-2-yloxy)phenylacetylamino)-1-(2-chloroethyl) pyrazole], the pest or weed control at 500 ppm was 100%. For `CCn1ncc(NC(=O)Cc2ccc(Oc3ccc(C(F)(F)F)cn3)c(OC)c2)c1Cl` [Compound D-33, 5-chloro-4-(3-methoxy-4-(5-trifluoromethylpyridine-2-yloxy)phenylacetylamino)-1-ethylpyrazole], the pest or weed control at 500 ppm was 100%. `CCn1ncc(NC(=O)Cc2ccc(Oc3ccc(C(F)(F)F)cn3)c(OC)c2)c1Br` [Compound D-79, 5-bromo-4-(3-methoxy-4-(5-trifluoromethylpyridine-2-yloxy)phenylacetylamino)-1-ethylpyrazole] showed a pest or weed control at 500 ppm of 100%. For `CCn1ncc(NC(=O)Cc2ccc(Oc3ccc(C(F)(F)F)nn3)c(OC)c2)c1Cl` [Compound D-78, 5-chloro-4-(3-methoxy-4-(6-trifluoromethylpyridazine-3-yloxy)phenylacetylamino)-1-ethylpyrazole], the pest or weed control at 500 ppm was 100%. `Cc1nn(C)c(Cl)c1NC(=O)Cc1ccc(-c2ccc(OC(F)(F)F)cc2)cc1` [Compound B-23, 5-chloro-4-(4-(4-trifluoromethoxyphenyl)phenylacetylamino)-1,3-dimethylpyrazole] was tested, and the pest or weed control at 500 ppm was 100%. Compound `Cc1nn(C)c(Cl)c1NC(=O)Cc1ccc2oc(CC(C)(C)C)nc2c1` [Compound C-1, 5-chloro-4-(2-(2,2-dimethylpropyl)benzoxazole-5-ylacetylamino)-1,3-dimethylpyrazole] has a pest or weed control at 500 ppm of 100%. `CCn1ncc(NC(=O)Cc2ccc(Oc3nc(C(F)(F)F)cs3)c(OC)c2)c1Cl` [Compound D-94, 5-chloro-4-(3-methoxy-4-(4-trifluoromethylthiazole-2-yloxy)phenylacetylamino)-1-ethylpyrazole] was tested, and the pest or weed control at 500 ppm was 100%.
